Data reported in patent publication US20080194585A1, “Fungicidal Pyrazine Derivatives” (priority 2005, published 2008).
Marks after values point to notes of the source that are not given here.

What was measured:
Conditions in all cases: 100 = 100% disease control, 0 = no control
Plasmopara viticola = assay: Test D: grape downy mildew, spray after inoculation of grape seedlings; type: in vivo
Text: Upon removal, disease ratings were made. […] A dash (-) indicates no test results.

Phytophthora infestans = assay: whole plant or invertebrate; type: in vivo
Septoria tritici = assay: Test J: wheat leaf blotch, preventive spray on wheat seedlings; type: in vivo
Text: A dash (-) indicates no test results.

fusarium graminearium = assay: Test I: wheat head scab, preventive spray on wheat seedlings
Protocol: (the causal agent of wheat head scab) and incubated in a saturated atmosphere at 20° C. for 72 h, and then moved to a growth chamber at 22° C. for 5 days, after which disease ratings were made.

[1] = tested on: Puccinia recondita f. sp. tritici; assay: Test K: wheat leaf rust, preventive spray on wheat seedlings
Botrytis cinerea = assay: Test E: tomato botrytis, preventive spray on tomato seedlings
Septoria nodorum = assay: Test H: wheat glum blotch, preventive spray on wheat seedlings
Protocol: (the causal agent of wheat glum blotch) and incubated in a saturated atmosphere at 20° C. for 48 h, and then moved to a growth chamber at 22° C. for 5 days, after which disease ratings were made.

[2] = tested on: Erysiphe graminis f. sp. tritici; assay: Test L: wheat powdery mildew, preventive spray on wheat seedlings
Pythium aphanidermatum = assay: Test A: bluegrass pythium blight, preventive spray on bluegrass seedlings
Rhizoctonia oryzae = assay: Test G: turf brown patch, preventive spray on creeping bent grass seedlings
Protocol: (the causal agent of turf brown patch) and incubated in a saturated atmosphere at 27° C. for 24 h, and then moved to a growth chamber at 27° C. for 5 days, after which disease ratings were made.

[3] = tested on: Colletotrichum orbiculare; assay: Test B: cucumber Colletotrichum anthracnose, preventive spray on cucumber seedlings

| SMILES | Test D disease control rating (Plasmopara viticola; 40 ppm (marked *)) | Test F disease control rating (Phytophthora infestans; 40 ppm (marked *)) | Test J disease control rating (Septoria tritici; 40 ppm (marked *)) | Test I disease control rating (fusarium graminearium; 40 ppm (marked *)) | Test K disease control rating ([1]; 40 ppm (marked *)) | Test E disease control rating (Botrytis cinerea; 40 ppm (marked *)) | Test H disease control rating (Septoria nodorum; 40 ppm (marked *)) | Test L disease control rating ([2]; 40 ppm (marked *)) | Test A disease control rating (Pythium aphanidermatum; 40 ppm (marked *)) | Test G disease control rating (Rhizoctonia oryzae; 40 ppm (marked *)) | Test B disease control rating ([3]; 40 ppm (marked *)) | Test D disease control rating (Plasmopara viticola; 200 ppm) | Test F disease control rating (Phytophthora infestans; 200 ppm) | Test I disease control rating (fusarium graminearium; 200 ppm) | Test K disease control rating ([1]; 200 ppm) | Test H disease control rating (Septoria nodorum; 200 ppm) | Test A disease control rating (Pythium aphanidermatum; 200 ppm) | further results |
| --- | --- | --- | --- | --- | --- | --- | --- | --- | --- | --- | --- | --- | --- | --- | --- | --- | --- | --- |
| CSCCn1c(-c2c(F)cccc2F)c(Cl)nc(-n2ccc(C)n2)c1=O [compound 311] | 0* % | 0* % | 74* % | 0* % | 74* % | 94* % | 0* % | 0* % | 0* % | 0* % | 0* % | – | – | – | – | – | – | – |
| COCC(C)n1c(-c2c(F)cccc2F)c(Cl)nc(-n2cccc2C#N)c1=O (stereo not shown) [compound 312] | – | – | – | – | – | – | – | – | – | – | – | 40% | 9% | 0% | 0% | 0% | 0% | Test J disease control rating (Septoria tritici; 200 ppm): 13%; Test E disease control rating (Botrytis cinerea; 200 ppm): 0%; Test L disease control rating ([2]; 200 ppm): 0%; Test G disease control rating (Rhizoctonia oryzae; 200 ppm): 0%; Test B disease control rating ([3]; 200 ppm): 0% |
| CC(C)Cn1c(-c2c(F)cccc2F)c(Cl)nc(N2CCCC2)c1=O [compound 314] | – | – | – | – | – | – | – | – | – | – | – | 0% | 0% | 18% | 0% | 0% | 88% | Test J disease control rating (Septoria tritici; 200 ppm): 0%; Test E disease control rating (Botrytis cinerea; 200 ppm): 0%; Test L disease control rating ([2]; 200 ppm): 0%; Test G disease control rating (Rhizoctonia oryzae; 200 ppm): 0%; Test B disease control rating ([3]; 200 ppm): 0% |
| CC(C)Cn1c(C2CC2)c(Cl)nc(-n2cccn2)c1=O [compound 315] | – | – | – | – | – | – | – | – | – | – | – | 0% | 0% | 0% | 0% | 0% | 69% | Test J disease control rating (Septoria tritici; 200 ppm): 7%; Test E disease control rating (Botrytis cinerea; 200 ppm): 0%; Test L disease control rating ([2]; 200 ppm): 0%; Test G disease control rating (Rhizoctonia oryzae; 200 ppm): 0%; Test B disease control rating ([3]; 200 ppm): 0% |
| CCc1c(Cl)nc(-n2cccn2)c(=O)n1CC(C)C [compound 316] | – | – | – | – | – | – | – | – | – | – | – | 0% | 0% | 0% | 0% | 0% | 54% | Test J disease control rating (Septoria tritici; 200 ppm): 0%; Test E disease control rating (Botrytis cinerea; 200 ppm): 0%; Test L disease control rating ([2]; 200 ppm): 0%; Test G disease control rating (Rhizoctonia oryzae; 200 ppm): 0%; Test B disease control rating ([3]; 200 ppm): 0% |
| CCCCCc1c(Cl)nc(-n2cccn2)c(=O)n1CC(C)C [compound 317] | – | – | – | – | – | – | – | – | – | – | – | 0% | 0% | 0% | 41% | 0% | 0% | Test J disease control rating (Septoria tritici; 200 ppm): 28%; Test E disease control rating (Botrytis cinerea; 200 ppm): 0%; Test L disease control rating ([2]; 200 ppm): 0%; Test G disease control rating (Rhizoctonia oryzae; 200 ppm): 0%; Test B disease control rating ([3]; 200 ppm): 0% |
| CC(C)Cn1c(-c2c(Cl)cc(Cl)cc2Cl)c(Cl)nc(-n2cccn2)c1=O [compound 318] | 0* % | 0* % | 100* % | 0* % | 97* % | 99* % | 97* % | 67* % | 0* % | 78* % | 82* % | – | – | – | – | – | – | – |
| O=c1c(-n2cccn2)nc(Cl)c(-c2c(F)cc(F)cc2F)n1-c1ccccc1F [compound 320] | 0* % | 0* % | 100* % | 0* % | 99* % | 99* % | 100* % | 96* % | 74* % | 80* % | 88* % | – | – | – | – | – | – | – |
| Cc1ccn(-c2nc(Cl)c(-c3c(F)cc(F)cc3F)n(-c3ccccc3)c2=O)n1 [compound 321] | 17* % | 0* % | 100* % | 82* % | 99* % | 99* % | 100* % | 0* % | 0* % | 70* % | 94* % | – | – | – | – | – | – | – |
| O=c1c(-n2cccn2)nc(Cl)c(-c2ccc(F)cc2Cl)n1-c1ccccc1 [compound 322] | 0* % | 0* % | 100* % | 0* % | 92* % | 99* % | 98* % | 0* % | 0* % | 16* % | 63* % | – | – | – | – | – | – | – |
| Cc1ccn(-c2nc(Cl)c(-c3ccc(F)cc3Cl)n(-c3ccccc3)c2=O)n1 [compound 323] | 0* % | 0* % | 100* % | 0* % | 96* % | 99* % | 97* % | 0* % | 0* % | 16* % | 78* % | – | – | – | – | – | – | – |
| CC(C)Cn1c(-c2c(F)cccc2F)c(Cl)nc(-n2cccc2C#N)c1=O [compound 325] | 0* % | 0* % | 7* % | 0* % | – | 0* % | – | 0* % | 0* % | 0* % | 0* % | – | – | – | 0% | 0% | – | – |
| Cc1cccc(-n2c(-c3c(F)cccc3F)c(Cl)nc(-n3cccn3)c2=O)c1 [compound 326] | 0* % | 0* % | 97* % | 0* % | 97* % | 99* % | 100* % | 94* % | 0* % | 16* % | 0* % | – | – | – | – | – | – | – |
| Cc1cccc(-n2c(-c3c(F)cccc3F)c(Cl)nc(-n3ccc(C)n3)c2=O)c1 [compound 327] | 0* % | 0* % | 97* % | 0* % | 95* % | 99* % | 98* % | 78* % | 93* % | 0* % | 37* % | – | – | – | – | – | – | – |
| Cc1ccccc1-n1c(-c2c(F)cccc2F)c(Cl)nc(-n2cccn2)c1=O [compound 328] | 0* % | 0* % | 100* % | 31* % | 98* % | 99* % | 100* % | 88* % | 0* % | 87* % | 0* % | – | – | – | – | – | – | – |
| Cc1ccn(-c2nc(Cl)c(-c3c(F)cccc3F)n(-c3ccccc3C)c2=O)n1 [compound 329] | 0* % | 0* % | 100* % | 0* % | 96* % | 99* % | 100* % | 76* % | 83* % | 26* % | 31* % | – | – | – | – | – | – | – |
| O=c1c(-n2cccn2)nc(Cl)c(-c2c(F)cc(F)cc2F)n1Cc1cccc(Br)c1 [compound 344] | – | – | 100* % | – | 99* % | 92* % | 99* % | 0* % | – | 16* % | 0* % | 0% | 0% | 93% | – | – | 0% | – |
